Data from patent US20210300940A1 (Merck Patent GmbH, priority 2018, published 2021).

Key:
TLR8 = target: T1, TLR8 (Homo sapiens, UniProt Q9NR97); experiment: HEK/293 TLR8 Cell Assay; assay type: cell-based; conditions: HEK cells, R848 agonist 30 uM final concentration, Steady-Glo readout; read-out: TLR8 potency
T1 construct: expressed in transfected cells; host or cells: HEK/293 reporter cells (NF-kB luciferase)
T1 sequence (Q9NR97 27-1041): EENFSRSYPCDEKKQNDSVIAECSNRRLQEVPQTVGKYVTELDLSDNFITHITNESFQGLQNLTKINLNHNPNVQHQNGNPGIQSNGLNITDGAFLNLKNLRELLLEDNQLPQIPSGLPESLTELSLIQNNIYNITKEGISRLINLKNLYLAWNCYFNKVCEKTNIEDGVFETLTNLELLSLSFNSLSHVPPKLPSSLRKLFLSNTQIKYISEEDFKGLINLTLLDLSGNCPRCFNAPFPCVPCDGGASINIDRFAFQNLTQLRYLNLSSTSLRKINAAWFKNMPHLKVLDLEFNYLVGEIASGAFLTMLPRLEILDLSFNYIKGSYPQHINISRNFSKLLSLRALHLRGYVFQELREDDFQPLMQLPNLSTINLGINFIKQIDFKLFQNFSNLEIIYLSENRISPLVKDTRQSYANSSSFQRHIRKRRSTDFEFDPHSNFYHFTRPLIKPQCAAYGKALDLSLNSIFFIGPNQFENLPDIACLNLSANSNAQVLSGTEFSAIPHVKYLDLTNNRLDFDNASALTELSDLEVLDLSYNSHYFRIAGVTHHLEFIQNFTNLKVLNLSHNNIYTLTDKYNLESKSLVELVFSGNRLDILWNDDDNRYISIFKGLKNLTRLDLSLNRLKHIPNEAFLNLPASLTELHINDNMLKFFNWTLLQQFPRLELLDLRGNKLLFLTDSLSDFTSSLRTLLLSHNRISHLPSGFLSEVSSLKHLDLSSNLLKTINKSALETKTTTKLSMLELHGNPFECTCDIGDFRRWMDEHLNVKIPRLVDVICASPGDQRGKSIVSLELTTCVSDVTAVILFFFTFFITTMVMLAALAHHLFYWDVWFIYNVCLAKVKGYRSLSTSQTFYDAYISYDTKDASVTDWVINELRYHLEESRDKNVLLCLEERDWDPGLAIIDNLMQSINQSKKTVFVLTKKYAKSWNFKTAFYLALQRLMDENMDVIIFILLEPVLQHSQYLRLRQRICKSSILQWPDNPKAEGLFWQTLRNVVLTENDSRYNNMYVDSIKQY

TLR7 = target: T2, TLR7 (Homo sapiens, UniProt Q9NYK1); experiment: HEK/293 TLR7 Cell Assay; assay type: cell-based; conditions: TLR7/NFKb HEK cells, R848 agonist 10 uM final concentration, Steady-Glo readout; read-out: TLR7 potency
T2 construct: expressed in transfected cells; host or cells: HEK/293 cells carrying TLR7 and an NF-kB luciferase reporter
T2 sequence (Q9NYK1 27-1049): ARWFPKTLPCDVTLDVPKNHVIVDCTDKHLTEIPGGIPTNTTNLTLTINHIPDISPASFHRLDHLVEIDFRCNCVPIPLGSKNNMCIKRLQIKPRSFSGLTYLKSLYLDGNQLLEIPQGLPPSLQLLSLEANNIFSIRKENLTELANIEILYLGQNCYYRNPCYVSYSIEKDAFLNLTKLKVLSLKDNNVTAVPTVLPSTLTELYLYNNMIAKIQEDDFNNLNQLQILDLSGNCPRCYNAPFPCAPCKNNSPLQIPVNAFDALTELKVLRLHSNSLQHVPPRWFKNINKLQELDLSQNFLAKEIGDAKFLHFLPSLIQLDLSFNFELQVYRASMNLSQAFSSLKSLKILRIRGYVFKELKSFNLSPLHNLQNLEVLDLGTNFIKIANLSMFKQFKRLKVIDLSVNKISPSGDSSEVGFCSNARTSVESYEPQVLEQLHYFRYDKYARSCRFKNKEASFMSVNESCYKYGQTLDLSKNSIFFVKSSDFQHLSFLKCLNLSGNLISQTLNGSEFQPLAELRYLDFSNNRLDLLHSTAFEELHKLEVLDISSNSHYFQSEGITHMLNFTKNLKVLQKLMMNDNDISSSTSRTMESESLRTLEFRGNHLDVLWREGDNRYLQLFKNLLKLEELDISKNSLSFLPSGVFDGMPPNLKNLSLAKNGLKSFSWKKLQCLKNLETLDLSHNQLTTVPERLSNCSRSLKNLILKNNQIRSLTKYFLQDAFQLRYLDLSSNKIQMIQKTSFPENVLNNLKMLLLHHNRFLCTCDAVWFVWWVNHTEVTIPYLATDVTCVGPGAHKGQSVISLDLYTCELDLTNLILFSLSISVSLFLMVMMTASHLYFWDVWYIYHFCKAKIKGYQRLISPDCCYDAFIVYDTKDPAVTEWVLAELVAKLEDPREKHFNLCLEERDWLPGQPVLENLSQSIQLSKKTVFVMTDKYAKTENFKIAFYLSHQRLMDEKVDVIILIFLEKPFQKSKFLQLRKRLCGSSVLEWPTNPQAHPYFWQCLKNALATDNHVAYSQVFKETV
Outline: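 Compounds added to HEK cells expressing TLR7 with an NFκB reporter 30 min ahead of 10 uM R848 challenge; luciferase signal (Steady-Glo) measured after 5 h, cells having been seeded 24 h earlier at 5000 per well.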

SMILES	IC50 (TLR8)	IC50 (TLR7)
C[C@@H]1CN(c2ccc(C#N)c3nccnc23)C[C@H](C(=O)NC2CCNCC2(F)F)O1 (stereo partly drawn) [Example 289, (2R,6R)-4-(8-Cyano-quinoxalin-5-yl)-6-methyl-morpholine-2-carboxylic acid (3,3-difluoro-piperidin-4-yl)-amide]	< 75 nM	< 75 nM
CC(=O)NCCNC[C@H]1CN(c2cnc(C#N)c3ncccc23)C[C@@H](C)O1 [Example 380, N-(2-{[(2S,6R)-4-(8-Cyano-[1,7]naphthyridin-5-yl)-6-methyl-morpholin-2-ylmethyl]-amino}-ethyl)-acetamide]	> 150 nM	> 150 nM
C[C@H]1C[C@@H](NC(=O)[C@@H](C)N2CCC(O)CC2)CN(c2ccc(C#N)c3nccnc23)C1 (single isomer, unassigned) [Example 103]	< 75 nM	> 150 nM
C[C@@H]1CN(c2ccc(C#N)c3nccnc23)C[C@H](C(=O)NCCN2CCOCC2)O1 [Example 265, (2R,6R)-4-(8-cyanoquinoxalin-5-yl)-6-methyl-N-[2-(morpholin-4-yl)ethyl]morpholine-2-carboxamide]	< 75 nM	< 75 nM
N#Cc1ccc(N2C[C@@H](CN3CCC4(CC3)CC(=O)N4)O[C@@H](C(F)(F)F)C2)c2nccnc12 (single isomer, unassigned) [Example 364]	> 150 nM	< 75 nM
C[C@H]1C[C@@H](NCC2(O)CCOCC2)CN(c2cnc(C(F)(F)F)c3ncccc23)C1 [Example 11, 4-{[(3R,5S)-5-Methyl-1-(8-trifluoromethyl-[1,7]naphthyridin-5-yl)-piperidin-3-ylamino]-methyl}-tetrahydro-pyran-4-ol]	> 150 nM	> 150 nM
CC(C)(O)CNC(=O)[C@H]1CN(c2ccc(C#N)c3nccnc23)C[C@@H](C(F)(F)F)O1 (single isomer, unassigned) [Example 284]	75 to 150 nM	< 75 nM
C[C@H]1C[C@@H](NC(=O)[C@H]2CCCN2)CN(c2ccc(C(F)(F)F)c3ncccc23)C1 [Example 177, (R)-Pyrrolidine-2-carboxylic acid [(3R,5S)-5-methyl-1-(8-trifluoromethyl-quinolin-5-yl)-piperidin-3-yl]-amide]	< 75 nM	75 to 150 nM
C[C@H]1C[C@@H](NC(=O)[C@@H]2COCCN2)CN(c2ccc(C#N)c3nccnc23)C1 [Example 208, (3S)—N-[(3R,5S)-1-(8-cyanoquinoxalin-5-yl)-5-methylpiperidin-3-yl]morpholine-3-carboxamide]	< 75 nM	75 to 150 nM
C[C@@H]1CN(c2cnc(C(F)(F)F)c3ncccc23)C[C@H](CNC2CCS(=O)(=O)CC2)O1 [Example 384, (1,1-Dioxo-hexahydro-1lambda6-thiopyran-4-yl)-[(2S,6R)-6-methyl-4-(8-trifluoromethyl-[1,7]naphthyridin-5-yl)-morpholin-2-ylmethyl]-amine]	> 150 nM	< 75 nM
C[C@@H]1CN(c2ccc(C(F)(F)F)c3ncccc23)C[C@H](CN2CCC(C(C)(C)O)C2)O1 (stereo partly drawn) [Example 331, 2-{1-[(2S,6R)-6-Methyl-4-(8-trifluoromethyl-quinolin-5-yl)-morpholin-2-ylmethyl]-pyrrolidin-3-yl}-propan-2-ol]	75 to 150 nM	< 75 nM
C[C@H]1C[C@@H](NC(=O)CCn2ccnc2)CN(c2ccc(C#N)c3nccnc23)C1 [Example 193, N-[(3R,5S)-1-(8-Cyano-quinoxalin-5-yl)-5-methyl-piperidin-3-yl]-3-imidazol-1-yl-propionamide]	< 75 nM	< 75 nM

Continued, values first:

IC50 (TLR8)	IC50 (TLR7)	SMILES
< 75 nM	> 150 nM	C[C@H]1C[C@@H](n2ccnc2)CN(c2ccc(C(F)(F)F)c3nccnc23)C1 [Example 157, 5-[(3R,5S)-3-(1H-imidazol-1-yl)-5-methylpiperidin-1-yl]-8-(trifluoromethyl)quinoxaline]
< 75 nM	< 75 nM	C[C@H]1C[C@@H](NCCC(=O)NO)CN(c2ccc(C(F)(F)F)c3ncccc23)C1 [Example 36, N-Hydroxy-3-[(3R,5S)-5-methyl-1-(8-trifluoromethyl-quinolin-5-yl)-piperidin-3-ylamino]-propionamide]
< 75 nM	75 to 150 nM	C[C@H]1C[C@@H](NCCNS(N)(=O)=O)CN(c2ccc(C(F)(F)F)c3ncccc23)C1 [Example 19]
< 75 nM	> 150 nM	Cc1ccc(N2C[C@@H](C)C[C@@H](n3ccnc3)C2)c2cccnc12 [Example 159, 5-[(3R,5S)-3-(1H-imidazol-1-yl)-5-methylpiperidin-1-yl]-8-methylquinoline]
< 75 nM	75 to 150 nM	C[C@H]1C[C@@H](NC(=O)[C@H]2COCCN2)CN(c2ccc(C#N)c3nccnc23)C1 [Example 209, (3R)—N-[(3R,5S)-1-(8-cyanoquinoxalin-5-yl)-5-methylpiperidin-3-yl]morpholine-3-carboxamide]
< 75 nM	< 75 nM	CC(C(=O)N[C@@H]1C[C@H](C)CN(c2ccc(C#N)c3nccnc23)C1)N1CCN(C)CC1 (single isomer, unassigned) [Example 90]
< 75 nM	75 to 150 nM	C[C@H]1C[C@@H](NC(=O)[C@@H](N)C(C)(C)O)CN(c2ccc(C(F)(F)F)c3ncccc23)C1 [Example 170, (S)-2-Amino-3-hydroxy-3-methyl-N-[(3R,5S)-5-methyl-1-(8-trifluoromethyl-quinolin-5-yl)-piperidin-3-yl]-butyramide]
< 75 nM	> 150 nM	Cc1noc([C@H]2CN(c3ccc(C#N)c4nccnc34)C[C@@H](C)O2)n1 (racemic) [Example 213, 8-[(2R,6R)-2-Methyl-6-(3-methyl-[1,2,4]oxadiazol-5-yl)-morpholin-4-yl]-quinoxaline-5-carbonitrile]
< 75 nM	< 75 nM	CNS(=O)(=O)CCCN[C@@H]1C[C@H](C)CN(c2ccc(C(F)(F)F)c3ncccc23)C1 [Example 32, 3-[(3R,5S)-5-Methyl-1-(8-trifluoromethyl-quinolin-5-yl)-piperidin-3-ylamino]-propane-1-sulfonic acid methylamide]
< 75 nM	< 75 nM	CN1CCC(F)(CC(=O)N[C@@H]2C[C@H](C(F)(F)F)CN(c3ccc(C#N)c4nccnc34)C2)CC1 [Example 77]
< 75 nM	< 75 nM	CC(C(=O)N[C@@H]1C[C@H](C)CN(c2ccc(C(F)(F)F)c3ncccc23)C1)N1CCN(C)CC1 (single isomer, unassigned) [Example 92]
